Each block holds one compound with its values, some of them ahead of it.
What was measured:
[1] = test system: IL-23 secretion in DC cells; assay: Inhibition of Zymosan-stimulated IL-23 secretion in DC cells differentiated from human mononuclear cells; type: cell-based; conditions: Zymosan 200 μg/ml, 24 hours, ELISA
Procedure: Day 0: Mononuclear cells were isolated from fresh human peripheral blood and purified, and then resuspended in RPMI-1640 complete medium. When differentiation into DC cells took place, IL-4 at a concentration of 50 ng/ml and GM-CSF at 100 ng/ml were added to the medium, and the cells were cultured at a density of 1×10^6 cells/mL in a culture dish with a diameter of 100 mm for differentiation in an incubator at 37° C. with a carbon dioxide concentration of 5%. Day 3: Half the volume of RPMI complete medium was replaced with fresh RPMI complete medium, and the concentrations of IL-4 and GM-CSF were maintained at 50 ng/ml and 100 ng/ml respectively. Day 6: Non-adherent cells (DC cells) in the culture dish were collected and washed with PBS. The washed DC cells were resuspended with RPMI complete medium at a density of 1×10^6 cells/mL. Then, 1×10^5 DC cells were added to each well of the 96-well cell culture plate and pre-incubated for 1 hour with different dilutions of the compounds to be tested (or DMSO blank negative control at an equivalent concentration), followed by addition of 200 μg/ml of TLR2 agonist Zymosan to stimulate the DC cells for 24 hours. Day 7: After the DC cells were stimulated by Zymosan for 24 hours, the supernatant in each well of the 96-well plate was collected and detected by ELISA for the concentration of IL-23.

[2] = Stability test II of crystal form A (light; HPLC and XRPD); type: physicochemical
Procedure: (§1) 5. High performance liquid chromatography (HPLC) described in the stability test of the crystal form A of the present disclosure is determined on Agilent 1260 Infinity II under the following HPLC conditions: chromatographic column of Agilen XDB C18 5 μm 4.6×250 mm; mobile phase of A—0.05% TFA (in water), and B—ACN; flow rate of 1.0 ml/min; wavelength of 220 nm.
It is determined whether light has an influence on the stability of crystal form A of the compound of formula I.
The crystal form A was placed in a light stabilizing chamber, and taken out after reaching ICH strength. The resulting solid was compared with the initial crystal form A. The content of the compound of formula I was determined by high performance liquid chromatography, and XRPD detection was performed.

[3] = Stability test I of crystal form A (temperature and humidity; HPLC and XRPD); type: physicochemical
Procedure: as §1
It is determined whether temperature and humidity have an influence on the stability of crystal form A of the compound of formula I.
The crystal form A was placed in a stabilizing chamber for accelerated stability tests under a series of temperature and humidity combinations. After being placed for different days under various temperature and humidity conditions, the samples were taken out and compared with the initial crystal form A. The content of the compound of formula I was determined by high performance liquid chromatography, and XRPD detection was performed.

[4] = Dynamic vapor sorption (DVS) hygroscopicity; type: physicochemical
From the text: The ‘9103 Guidelines for Hygroscopicity of Drugs’ in Volume IV of the 2015 edition of Chinese Pharmacopoeia describes the characteristics of hygroscopicity and defines the weight gain by hygroscopicity as follows, • deliquescent: absorbing sufficient moisture to form a liquid; • extremely hygroscopic: the weight gain by hygroscopicity being no less than 15%; • hygroscopic: the weight gain by hygroscopicity being less than 15% but not less than 2%; • slightly hygroscopic: the weight gain by hygroscopicity being less than 2% but not less than 0.2%; • no or almost no hygroscopic: the weight gain by hygroscopicity being less than 0.2%.
The detection is performed using SMS Intrinsic PLUS at 25° C., with humidity change of 50%-0%-90% with a step size of 10%, in which the criteria for judging is that the mass change dM/dT for each gradient is less than 0.0002%, TMAX is 360 min, and two cycles are performed.

[5] = test system: imiquimod-induced mouse model of psoriasis; assay: Imiquimod-induced psoriasis suppression assay; type: in vivo, Balb/c female mice; parameters: key to Erythema score, Mean / Psoriasis score, Mean / Thickness score, Mean: 0-5 scale, higher = more severe; key to Total clinical score, Mean: sum of 0-5 component scores; higher = more serious disease; conditions: for Ratio of spleen to body weight, Mean: Day 7, percentage of spleen to body weight; for Erythema score, Mean / Psoriasis score, Mean / Thickness score, Mean: Days 1-7; for Total clinical score, Mean: Days 1-7, endpoint of the experiment; for Effect on clinical score at the endpoint of the experiment / Effect on the ratio of spleen to body weight / Effect on the increase in skin thickness: Compound A 0.03%, versus model group; for Effect on clinical score at the endpoint of the experiment: each dose of Compound I (0.01%, 0.03%, 0.1%); for Effect on the ratio of spleen to body weight: three dose groups of Compound I; for Effect on the increase in skin thickness: Compound I low and high dose groups
From the text: An appropriate amount of Compound I was formulated into an ointment with the following components: 0.1% of Compound I, 9% of hexanediol, 78.8% of white petrolatum, 5% of paraffin, 7% of glyceryl mono- and di-stearate, and 0.1% of dihydroxybutyl toluene, which were mechanically stirred until an ointment was formed.
7-Week-old Balb/c female mice were used and the hair on their back in an area of 2 cm×3 cm was shaved the day before the experiment. On Days 1-7 of the experiment, the test compounds were applied on the skin, and after 6 hours, imiquimod (IMQ) ointment (Aldara (5%)) was continuously applied to the back skin of mice for 7 days, so as to establish a mouse model of psoriasis, while the control group was given the same dose of petrolatum ointment. On Days 3, 5 and 7, the severity of skin inflammation was assessed, including measurement of skin thickness, crusting and erythema, scored on a 5-point scale (0-5) respectively. The total score was used to assess the severity of skin inflammation. On Day 7 of the experiment, the spleen was collected and weighed, and the percentage of spleen to body weight was calculated to assess the immunosuppressive effect of the drug.
Normal control group, model control group, low, medium and high dose groups of Compound I (0.01%, 0.03% and 0.1%), and 0.03% reference Compound A group were set up in this experiment.
The total score of the degree of skin inflammation are the clinical score, the indicators of which are relatively subjective, and higher score indicated more serious disease. The degree of increase in skin thickness was an objective assessment indicator, and more increase in thickness indicated more serious disease. The ratio of spleen to body weight was an objective assessment indicator, and smaller ratio of spleen to body weight indicated stronger immunosuppressive effect of the drug.

TNF-α release in PBMCs = assay: Inhibition of LPS-induced TNF-α release in peripheral blood mononuclear cells; type: cell-based; conditions: PBMC; LPS 0.1 ng/ml, 24 hours, ELISA
Procedure: Frozen PBMCs were thawed and detected by Trypan blue staining for cell viability and number. The thawed PBMCs were washed with RPMI1640 complete medium (RPMI1640+10% FBS+1% PS) and centrifuged, and the supernatant was discarded. The PBMCs were resuspended with RPMI1640 complete medium and the cell density was adjusted to 2×10^6 cells/mL. 2×10^5 PBMC cells were plated in a 96-well cell culture plate, and the compounds to be tested were added at different concentrations, in a 1:5 serial dilution of 9 concentrations starting from a maximum compound concentration of 100 μM, each in duplicate wells. LPS was added at a final concentration of 0.1 ng/ml, making a total volume of 200 μL. For the negative and positive controls, only LPS and DMSO were added to the negative control wells, while 1 μg/mL of dexamethasone as a positive control was added to the positive control wells in addition to cells and LPS. The cells were incubated for 24 hours in an incubator at 37° C. After completion of the incubation, 100 μL of cell culture supernatant was collected and detected by ELISA for the TNF-α level. 100 μL of CellTiter-Glo was added to the remaining cells in each well to detect the level of cell viability. The IC50 values of inhibition on TNF-α release by the compounds were calculated.

PDE4B1 enzyme = biological target: T1, PDE4B1 enzyme (Homo sapiens, UniProt Q07343); assay: In vitro PDE4B enzyme activity detection assay (IMAP FP, FAM-cAMP substrate); type: biochemical; conditions: PDE4B1 0.04 nM, FAM-cAMP 0.1 μM, 25° C. 30 min
T1 construct: purchased BPS 60041
T1 sequence (Q07343 whole entry): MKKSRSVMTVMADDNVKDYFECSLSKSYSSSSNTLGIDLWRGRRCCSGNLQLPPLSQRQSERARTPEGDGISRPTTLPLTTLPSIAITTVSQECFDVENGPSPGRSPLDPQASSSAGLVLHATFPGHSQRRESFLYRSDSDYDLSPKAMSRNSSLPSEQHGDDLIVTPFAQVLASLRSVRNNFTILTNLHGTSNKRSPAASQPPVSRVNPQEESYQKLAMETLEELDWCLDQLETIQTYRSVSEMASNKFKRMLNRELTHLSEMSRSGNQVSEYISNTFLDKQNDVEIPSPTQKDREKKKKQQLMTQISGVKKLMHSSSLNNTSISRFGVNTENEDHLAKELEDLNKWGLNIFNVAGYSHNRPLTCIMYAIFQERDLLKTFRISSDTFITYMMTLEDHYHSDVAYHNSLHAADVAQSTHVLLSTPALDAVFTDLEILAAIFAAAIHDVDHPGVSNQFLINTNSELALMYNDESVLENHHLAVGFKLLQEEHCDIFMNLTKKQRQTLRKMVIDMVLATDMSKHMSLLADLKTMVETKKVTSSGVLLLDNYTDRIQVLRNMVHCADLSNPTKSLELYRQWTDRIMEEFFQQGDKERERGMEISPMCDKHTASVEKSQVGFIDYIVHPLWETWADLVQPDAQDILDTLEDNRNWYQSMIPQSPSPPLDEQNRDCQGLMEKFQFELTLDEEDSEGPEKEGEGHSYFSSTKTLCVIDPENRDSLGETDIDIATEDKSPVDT
Procedure: A stock solution of the compound at a concentration of 10 mM was prepared in a test tube with 90% DMSO (10% water), and it was used to prepare a series of dilutions with a dilution factor of 1:5 and final concentrations starting from 100 μM and lowering to 0.05 nM.
0.2 μl of the solution of the compound was transferred into a 384-well reaction plate, and 0.2 μl of 100% DMSO was transferred into both the negative and positive controls. Then, 10 μl of 2×PDE4B1 enzyme solution (a final concentration of 0.04 nM) was added to the wells, and 10 μl of 1× reaction buffer (50 mM HEPES, pH 7.5, 0.0015% Brij-35) instead of the enzyme solution was added to the wells of the control without enzyme activity. The plate was centrifuged at 1,000 rpm for 1 min and incubated at room temperature for 15 min. Next, 10 μl of 2×FAM-CAMP substrate solution (a substrate final concentration of 0.1 μM) was added to each well of the 384-well reaction plate. The plate was centrifuged at 1,000 rpm for 1 min, and the reaction was carried out at 25° C. for 30 min. […]
After completion of the incubation, the RLU data were read and the inhibition rate was calculated. The IC50 value was calculated from the concentration-inhibition fitted curve, wherein the maximum value refers to the reading of the DMSO control and the minimum value refers to the reading of the control without enzyme activity.

IC50 [1]: 12.9 nM
Compound: O=C(Nc1c(Cl)cncc1Cl)c1ccc(OC(F)F)c(OCC2CC2)c1 [Roflumilast]

Purity ([2]; At 0): 97.99%
Purity ([2]; Light-0.5 ICH): 97.76%
Purity ([2]; Light-1.0 ICH): 97.15%
Purity ([3]; 55 °C, 30% humidity, 18 days): 98.01%
Purity ([3]; 55 °C, 79% humidity, 20 days): 97.40%
Purity ([3]; 65 °C, 11% humidity, 20 days): 97.74%
Purity ([3]; 65 °C, 50% humidity, 20 days): 96.16%
Purity ([3]; 65 °C, 75% humidity, 20 days): 95.86%
Purity ([3]; 70 °C, 11% humidity, 20 days): 97.33%
Purity ([3]; 75 °C, 0% humidity, 20 days): 97.41%
Purity ([3]; 75 °C, 50% humidity, 7 days): 96.57%
Purity ([3]; initial, 0 days): 97.99%
Weight gain by hygroscopicity ([4]; accelerated experimental conditions, 70% RH): approximately 0.15%
Crystal form before and after DVS detection (XRPD) ([4]; after DVS, humidity 0% to 90% RH): does not change
Weight gain by hygroscopicity ([4]; extreme conditions, 90% RH): approximately 0.70%
Weight gain by hygroscopicity ([4]; normal storage conditions, 25° C., 60% RH): approximately 0.08%
Compound: COc1ccc(-c2cncc([C@@H]3COB(O)C3)n2)c2c1OC(C)(C)CC2 [crystal form A, (R)-4-(6-(8-methoxy-2,2-dimethylbenzodihydropyran-5-yl)pyrazin-2-yl)-1,2-oxaborocyclopentan-2-ol]
Overall stability under temperature and humidity combinations ([3]; accelerated stability tests, Table 4 conditions): remains unchanged and exhibits good stability

IC50 [1]: 0.018 nM
IC50 (PDE4B1 enzyme): 0.17 nM
Compound: COc1ccc(-c2cncc([C@@H]3COB(O)C3)n2)c2c1OC(C)(C)CC2 [Compound I, (R)-4-(6-(8-methoxy-2,2-dimethylbenzodihydropyran-5-yl)pyrazin-2-yl)-1,2-oxaborocyclopentan-2-ol]
Ratio of spleen to body weight, Mean ([5]; 0.01% applied on skin): 0.64
Erythema score, Mean ([5]; 0.01% applied on skin): 4
Psoriasis score, Mean ([5]; 0.01% applied on skin): 3.13
Thickness score, Mean ([5]; 0.01% applied on skin): 2.38
Total clinical score, Mean ([5]; 0.01% applied on skin): 9.5
Inhibitory effect on the increase in skin thickness compared with Compound A at the same dose ([5]; 0.03%): significantly higher
Ratio of spleen to body weight, Mean ([5]; 0.03% applied on skin): 0.43
Erythema score, Mean ([5]; 0.03% applied on skin): 3.86
Psoriasis score, Mean ([5]; 0.03% applied on skin): 2.14
Thickness score, Mean ([5]; 0.03% applied on skin): 1.57
Total clinical score, Mean ([5]; 0.03% applied on skin): 7.57
Ratio of spleen to body weight, Mean ([5]; 0.1% applied on skin): 0.31
Erythema score, Mean ([5]; 0.1% applied on skin): 3.63
Psoriasis score, Mean ([5]; 0.1% applied on skin): 1.38
Thickness score, Mean ([5]; 0.1% applied on skin): 1.75
Total clinical score, Mean ([5]; 0.1% applied on skin): 6.75
Effect on clinical score at the endpoint of the experiment [5]: significantly reduce
Effect on the ratio of spleen to body weight [5]: significantly reduce
Effect on the increase in skin thickness [5]: significantly inhibit
IC50 (TNF-α release in PBMCs): 0.055 nM

IC50 [1]: 0.61 nM
Compound: CCCOc1cc(-c2cncc([C@@H]3COB(O)C3)c2)ccc1OC [Compound A, reference compound]
Ratio of spleen to body weight, Mean ([5]; 0.03% applied on skin): 0.96
Erythema score, Mean ([5]; 0.03% applied on skin): 3.33
Psoriasis score, Mean ([5]; 0.03% applied on skin): 2.5
Thickness score, Mean ([5]; 0.03% applied on skin): 2.5
Total clinical score, Mean ([5]; 0.03% applied on skin): 8.33
Effect on clinical score at the endpoint of the experiment [5]: significantly reduce
Effect on the ratio of spleen to body weight [5]: no significant effect
Effect on the increase in skin thickness [5]: no significant effect

— patent publication US20260258057A1, “CRYSTAL OF BORATE DERIVATIVE, METHOD FOR PREPARING SAME, AND USE THEREOF” (Reistone Biopharma Company Limited, priority 2022, published 2026)
